Data published in ChEMBL document CHEMBL1125802, “Isolation and structure of the cell growth inhibitory constituents from the western Pacific marine sponge Axinella sp” (1991).
≈ marks a conversion by molar mass, not a printed value. Where a SMILES comes first, the peptide text is derived from it.

Experiments:
P388 [1] = assay: T/C at 150 ug/kg; format: functional, Mus musculus
P388 [2] = assay: T/C at 25 mg/kg; format: functional, Mus musculus
P388 [3] = assay: Effect on P388 lymphocytic leukemia (PS system) cell growth; format: functional; conditions: Mus musculus, read-out: ED50 (the source's name)
P388 [4] = assay: Effect on change in life span of P388 lymphocytic leukemia (PS system) cell growth at 100 mg/kg; format: functional, Mus musculus
P388 [5] = assay: Effect on P388 lymphocytic leukemia (PS system) cell growth […]; format: functional; conditions: Mus musculus, read-out: ED50 (the source's name)

**Q.** For `C=C1C[C@@H]2CC[C@@]34C[C@H]5O[C@H]6[C@@H](O3)[C@H]3O[C@H](CC[C@@H]3O[C@H]6[C@H]5O4)CC(=O)O[C@@H]3[C@@H](C)[C@@H]4O[C@@H]5C[C@]6(C[C@@H]7O[C@]8(C[C@H](C)[C@@H]9O[C@@H]%10CC(C(O)CO)O[C@@H]%10C[C@@H]9O8)C[C@H](C)[C@@H]7O6)O[C@@H]5C[C@@H]4O[C@H]3C[C@H]3O[C@@H](CC[C@@H]1O2)C[C@@H](C)C3=C` (stereo not given in full) [HOMOHALICHONDRIN B], which T/C (P388 [1]) is on record?
**A.** The T/C was 285.

**Q.** How did the T/C (P388 [2]) turn out when `C=C1C[C@@H]2CC[C@@]34C[C@H]5O[C@H]6[C@@H](O3)[C@H]3O[C@H](CC[C@@H]3O[C@H]6[C@H]5O4)CC(=O)O[C@@H]3[C@@H](C)[C@@H]4O[C@@H]5C[C@]6(C[C@@H]7O[C@]8(C[C@H](C)[C@@H]9O[C@H]([C@@H](O)C[C@@H](O)CO)C[C@@H]9O8)C[C@H](C)[C@@H]7O6)O[C@@H]5C[C@@H]4O[C@H]3C[C@H]3O[C@@H](CC[C@@H]1O2)C[C@@H](C)C3=C` [HALICHONDRIN B] was run?
**A.** Its T/C is 238.

**Q.** Which results are given for `CC(C)O.ClCCl`?
**A.** EC50 (P388 [3]): 2.5 µg/mL; Life span (P388 [4]): 10%

**Q.** `CC(C)[C@@H]1NC(=O)[C@H](Cc2ccccc2)NC(=O)[C@@H]2CCCN2C(=O)[C@H](CC(N)=O)NC(=O)[C@H](C(C)C)NC(=O)[C@@H]2CCCN2C(=O)[C@H](C(C)C)NC1=O` (cyclo(FVVPVNP)) was tested. Which EC50 (P388 [5]) did it give?
**A.** The EC50 was 0.21 µg/mL (≈ 0.279 µM).
